Results taken from ChEMBL document CHEMBL5729192, “CD73 inhibitors” (2022).

Molecular target: 5'-nucleotidase (Homo sapiens, UniProt P21589)
Assay: Biochemical Assay: Assay Reaction ConditionsAssay Volume: 70 μlReaction Volume: 50 μlCD73: 0.3208 nMAMP: 15 μMAssay Buffer: 2 5 mM Tris-HCL, pH 7.4, 0.01% Brij-35, 0.01% BSA, 5 mM MgCl2Assay Procedure:Used 384 clear plate.Made dose titration of testing compounds in assay buffer, 10 points ½ log titrations in duplicates starting at 100 μM.Added 25 μl of CD73 to each well for a final concentration of 320 pM.Incubated at RT for 15 min.Added 25 μl of AMP to each well for a final concentration of 15 μM.Incubated at RT for 10 min.Added 10 μl of Malachite Green Reagent A, incubate at RT for 10 min.Added 10 μl of Malachite Green Reagent B, incubate at RT for 45 min.Read the Absorbance on Envision plate reader using excitation filter: Cy5 620 nM.

5'-nucleotidase, sequence (P21589 whole entry): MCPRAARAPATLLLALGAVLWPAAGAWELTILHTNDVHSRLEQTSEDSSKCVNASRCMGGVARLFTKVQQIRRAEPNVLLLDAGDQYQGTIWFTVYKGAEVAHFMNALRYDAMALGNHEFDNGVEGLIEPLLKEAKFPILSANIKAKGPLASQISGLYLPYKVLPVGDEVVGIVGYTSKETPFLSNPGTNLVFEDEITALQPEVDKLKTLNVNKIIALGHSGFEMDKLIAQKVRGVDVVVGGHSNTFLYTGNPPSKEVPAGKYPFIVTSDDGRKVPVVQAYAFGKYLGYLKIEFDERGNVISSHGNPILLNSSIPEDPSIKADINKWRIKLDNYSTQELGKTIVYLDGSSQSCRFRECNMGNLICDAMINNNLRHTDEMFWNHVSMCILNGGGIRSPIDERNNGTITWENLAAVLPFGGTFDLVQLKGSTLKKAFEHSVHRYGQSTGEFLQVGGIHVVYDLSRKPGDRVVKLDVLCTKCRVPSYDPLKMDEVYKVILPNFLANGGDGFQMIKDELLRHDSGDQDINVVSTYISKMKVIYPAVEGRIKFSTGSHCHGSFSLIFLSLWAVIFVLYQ

IC50, < 500 nM:
C[C@]1(O)C[C@@H](Nc2nc(Cl)nc3c2cnn3[C@@H]2O[C@H](COCP(=O)(O)O)[C@@H](O)[C@H]2O)C1, O=P(O)(O)COC[C@H]1O[C@@H](n2ncc3c(NCc4cccc(Cl)c4Cl)nc(Cl)nc32)[C@H](O)[C@@H]1O, CNc1nc(Cl)nc2c1cnn2[C@@H]1O[C@H](COCP(=O)(O)O)[C@@H](O)[C@H]1O
